Data taken from ChEMBL document CHEMBL3885881, “DrugMatrix”.

Species: Rattus norvegicus
Assay: DrugMatrix - Regimen: Daily Repeat
Type: toxicity, organism-based, Sprague-Dawley
Design: regimen Daily Repeat, gender Male, age 6-8 weeks
Conditions: in vivo, po, route oral GAVAGE, vehicle 100 % WATER; for ABSOLUTE BASOPHIL / ABSOLUTE EOSINOPHIL / ABSOLUTE LYMPHOCYTE / ABSOLUTE MONOCYTE / ABSOLUTE SEGMENTED NEUTROPHIL / BASOPHIL / EOSINOPHIL / ERYTHROCYTE COUNT / HEMATOCRIT / HEMOGLOBIN / LEUKOCYTE COUNT / LYMPHOCYTE / MEAN CORPUSCULAR HEMOGLOBIN / MEAN CORPUSCULAR HEMOGLOBIN CONCENTRATION / MEAN CORPUSCULAR VOLUME / MONOCYTE / NEUTROPHIL / NUCLEATED RED BLOOD CELLS / PLATELET COUNT: tissue Blood; for ALANINE AMINOTRANSFERASE / ALBUMIN / ALKALINE PHOSPHATASE / ASPARTATE AMINOTRANSFERASE / BLOOD UREA NITROGEN / CARBON DIOXIDE / CHLORIDE / CHOLESTEROL / CREATINE PHOSPHOKINASE / CREATININE / GLUCOSE / LACTATE DEHYDROGENASE / LIPASE / PHOSPHORUS / POTASSIUM / SODIUM / TOTAL BILIRUBIN / TOTAL PROTEIN / URIC ACID: tissue Plasma
[1] = 0 mg/kg, 72 h, dose level Control, time 3 day
[2] = 0 mg/kg, 120 h, dose level Control, time 5 day
[3] = 28 mg/kg, 72 h, dose level Low, time 3 day

Structure (SMILES): Cn1cc[nH]c1=S [METHIMAZOLE]
- ABSOLUTE BASOPHIL [1]: 0 CELLS/uL
- ABSOLUTE EOSINOPHIL [1]: 0 CELLS/uL
- ABSOLUTE LYMPHOCYTE [1]: 8482.5 CELLS/uL
- ABSOLUTE MONOCYTE [1]: 63.83 CELLS/uL
- ABSOLUTE SEGMENTED NEUTROPHIL [1]: 887 CELLS/uL
- BASOPHIL [1]: 0%
- EOSINOPHIL [1]: 0%
- ERYTHROCYTE COUNT [1]: 5.49 x10E6/uL
- HEMATOCRIT [1]: 34.5%
- HEMOGLOBIN [1]: 13.33 G/DL
- LEUKOCYTE COUNT [1]: 9.43 x10E3/uL
- LYMPHOCYTE [1]: 90.17%
- MEAN CORPUSCULAR HEMOGLOBIN [1]: 24.3 pg
- MEAN CORPUSCULAR HEMOGLOBIN CONCENTRATION [1]: 38.63 G/DL
- MEAN CORPUSCULAR VOLUME [1]: 62.88 fL
- MONOCYTE [1]: 0.67%
- NEUTROPHIL [1]: 9.17%
- NUCLEATED RED BLOOD CELLS [1]: 0.67 /100WBC
- PLATELET COUNT [1]: 1022.83 x10E3/uL
- ALANINE AMINOTRANSFERASE [1]: 50.5 u/L
- ALBUMIN [1]: 4.08 G/DL
- ALKALINE PHOSPHATASE [1]: 368.33 u/L
- ASPARTATE AMINOTRANSFERASE [1]: 87.5 u/L
- BLOOD UREA NITROGEN [1]: 12.83 mg/dL
- CARBON DIOXIDE [1]: 32.83 mmol/L
- CHLORIDE [1]: 99.67 MEQ/L
- CHOLESTEROL [1]: 79.67 mg/dL
- CREATINE PHOSPHOKINASE [1]: 585 u/L
- CREATININE [1]: 0.22 mg/dL
- GLUCOSE [1]: 135.67 mg/dL
- LACTATE DEHYDROGENASE [1]: 171 u/L
- LIPASE [1]: 9.5 u/L
- PHOSPHORUS [1]: 11.18 mg/dL
- POTASSIUM [1]: 6.25 MEQ/L
- SODIUM [1]: 144.87 MEQ/L
- TOTAL BILIRUBIN [1]: 0.2 mg/dL
- TOTAL PROTEIN [1]: 6.08 G/DL
- URIC ACID [1]: 0.65 mg/dL
- ABSOLUTE BASOPHIL [2]: 0 CELLS/uL
- ABSOLUTE EOSINOPHIL [2]: 14.5 CELLS/uL
- ABSOLUTE LYMPHOCYTE [2]: 7596.17 CELLS/uL
- ABSOLUTE MONOCYTE [2]: 69.67 CELLS/uL
- ABSOLUTE SEGMENTED NEUTROPHIL [2]: 503 CELLS/uL
- BASOPHIL [2]: 0%
- EOSINOPHIL [2]: 0.17%
- ERYTHROCYTE COUNT [2]: 5.49 x10E6/uL
- HEMATOCRIT [2]: 34.72%
- HEMOGLOBIN [2]: 13.47 G/DL
- LEUKOCYTE COUNT [2]: 8.18 x10E3/uL
- LYMPHOCYTE [2]: 92.17%
- MEAN CORPUSCULAR HEMOGLOBIN [2]: 24.57 pg
- MEAN CORPUSCULAR HEMOGLOBIN CONCENTRATION [2]: 38.82 G/DL
- MEAN CORPUSCULAR VOLUME [2]: 63.3 fL
- MONOCYTE [2]: 1%
- NEUTROPHIL [2]: 6.67%
- NUCLEATED RED BLOOD CELLS [2]: 0 /100WBC
- PLATELET COUNT [2]: 1141 x10E3/uL
- ALANINE AMINOTRANSFERASE [2]: 48.33 u/L
- ALBUMIN [2]: 4.07 G/DL
- ALKALINE PHOSPHATASE [2]: 395.67 u/L
- ASPARTATE AMINOTRANSFERASE [2]: 85.67 u/L
- BLOOD UREA NITROGEN [2]: 15.83 mg/dL
- CARBON DIOXIDE [2]: 31.33 mmol/L
- CHLORIDE [2]: 100.83 MEQ/L
- CHOLESTEROL [2]: 62.33 mg/dL
- CREATINE PHOSPHOKINASE [2]: 248.33 u/L
- CREATININE [2]: 0.2 mg/dL
- GLUCOSE [2]: 135.67 mg/dL
- LACTATE DEHYDROGENASE [2]: 141.33 u/L
- LIPASE [2]: 9.5 u/L
- PHOSPHORUS [2]: 10.73 mg/dL
- POTASSIUM [2]: 6.07 MEQ/L
- SODIUM [2]: 145.35 MEQ/L
- TOTAL BILIRUBIN [2]: 0.22 mg/dL
- TOTAL PROTEIN [2]: 6.12 G/DL
- URIC ACID [2]: 0.63 mg/dL
- ABSOLUTE BASOPHIL [3]: 0 CELLS/uL
- ABSOLUTE EOSINOPHIL [3]: 0 CELLS/uL
- ABSOLUTE LYMPHOCYTE [3]: 8790 CELLS/uL
- ABSOLUTE MONOCYTE [3]: 67.33 CELLS/uL
- ABSOLUTE SEGMENTED NEUTROPHIL [3]: 776 CELLS/uL
- BASOPHIL [3]: 0%
- EOSINOPHIL [3]: 0%
- ERYTHROCYTE COUNT [3]: 5.45 x10E6/uL
- HEMATOCRIT [3]: 33.93%
- HEMOGLOBIN [3]: 13.23 G/DL
- LEUKOCYTE COUNT [3]: 9.63 x10E3/uL
- LYMPHOCYTE [3]: 91.33%
- MEAN CORPUSCULAR HEMOGLOBIN [3]: 24.3 pg
- MEAN CORPUSCULAR HEMOGLOBIN CONCENTRATION [3]: 39 G/DL
- MEAN CORPUSCULAR VOLUME [3]: 62.37 fL
- MONOCYTE [3]: 0.67%
- NEUTROPHIL [3]: 8%
- NUCLEATED RED BLOOD CELLS [3]: 0.33 /100WBC
- PLATELET COUNT [3]: 926 x10E3/uL
- ALANINE AMINOTRANSFERASE [3]: 53.33 u/L
- ALBUMIN [3]: 4.17 G/DL
- ALKALINE PHOSPHATASE [3]: 410.67 u/L
- ASPARTATE AMINOTRANSFERASE [3]: 78 u/L
- BLOOD UREA NITROGEN [3]: 11.33 mg/dL
- CARBON DIOXIDE [3]: 33 mmol/L
- CHLORIDE [3]: 98.67 MEQ/L
- CHOLESTEROL [3]: 91.33 mg/dL
- CREATINE PHOSPHOKINASE [3]: 269.33 u/L
- CREATININE [3]: 0.34 mg/dL
- GLUCOSE [3]: 123 mg/dL
- LACTATE DEHYDROGENASE [3]: 147.67 u/L
- LIPASE [3]: 11 u/L
- PHOSPHORUS [3]: 10.97 mg/dL
- POTASSIUM [3]: 6.8 MEQ/L
- SODIUM [3]: 143.6 MEQ/L
- TOTAL BILIRUBIN [3]: 0.23 mg/dL
- TOTAL PROTEIN [3]: 6.13 G/DL
- URIC ACID [3]: 0.8 mg/dL
